Experimental findings from ChEMBL document CHEMBL1255557, “Heterobiaryl and heterobiaryl ether derived M5 positive allosteric modulators” (Bioorg Med Chem Lett, 2010) are described below.

For orientation: EC50 means the concentration needed to bring the measured effect to its halfway point. The term Emax denotes the maximal effect, on the per cent scale that the assay sets. As a reminder, the logP is the decadic logarithm of the partition coefficient of the neutral form, usually between octanol and water.

The target in data set [1] is T1, Muscarinic acetylcholine receptor M5 (Homo sapiens, UniProt P08912).
T1 sequence (P08912 whole entry): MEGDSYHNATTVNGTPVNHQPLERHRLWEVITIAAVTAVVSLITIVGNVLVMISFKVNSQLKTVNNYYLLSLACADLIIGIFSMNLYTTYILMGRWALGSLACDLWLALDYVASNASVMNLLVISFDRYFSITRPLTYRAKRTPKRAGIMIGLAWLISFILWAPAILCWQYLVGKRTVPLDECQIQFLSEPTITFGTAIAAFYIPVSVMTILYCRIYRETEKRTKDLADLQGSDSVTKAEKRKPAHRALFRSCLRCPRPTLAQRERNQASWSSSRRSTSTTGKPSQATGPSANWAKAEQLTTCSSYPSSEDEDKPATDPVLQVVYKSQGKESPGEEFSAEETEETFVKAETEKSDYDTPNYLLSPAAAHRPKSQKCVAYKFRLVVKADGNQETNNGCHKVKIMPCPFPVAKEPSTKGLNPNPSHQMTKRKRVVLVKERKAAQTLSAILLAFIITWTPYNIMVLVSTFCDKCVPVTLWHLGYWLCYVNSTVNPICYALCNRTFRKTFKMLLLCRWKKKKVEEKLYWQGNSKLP
As to the kind of experiment: Positive allosteric modulation of muscarinic M5 receptor expressed in CHO cells assessed as effect on acetylcholine-induced intracellular calcium mobilization after 1 hr by FLIPR assay. In kind it is functional, cell-based. Background: Calcium assays in cells follow changes in intracellular calcium, usually with a dye or a luminescent sensor.

The target in data set [2] is Sodium-dependent noradrenaline transporter (Homo sapiens) (UniProt P23975). As to the kind of experiment: Inhibition of NET.
Sequence of Sodium-dependent noradrenaline transporter (Homo sapiens) (P23975 whole entry): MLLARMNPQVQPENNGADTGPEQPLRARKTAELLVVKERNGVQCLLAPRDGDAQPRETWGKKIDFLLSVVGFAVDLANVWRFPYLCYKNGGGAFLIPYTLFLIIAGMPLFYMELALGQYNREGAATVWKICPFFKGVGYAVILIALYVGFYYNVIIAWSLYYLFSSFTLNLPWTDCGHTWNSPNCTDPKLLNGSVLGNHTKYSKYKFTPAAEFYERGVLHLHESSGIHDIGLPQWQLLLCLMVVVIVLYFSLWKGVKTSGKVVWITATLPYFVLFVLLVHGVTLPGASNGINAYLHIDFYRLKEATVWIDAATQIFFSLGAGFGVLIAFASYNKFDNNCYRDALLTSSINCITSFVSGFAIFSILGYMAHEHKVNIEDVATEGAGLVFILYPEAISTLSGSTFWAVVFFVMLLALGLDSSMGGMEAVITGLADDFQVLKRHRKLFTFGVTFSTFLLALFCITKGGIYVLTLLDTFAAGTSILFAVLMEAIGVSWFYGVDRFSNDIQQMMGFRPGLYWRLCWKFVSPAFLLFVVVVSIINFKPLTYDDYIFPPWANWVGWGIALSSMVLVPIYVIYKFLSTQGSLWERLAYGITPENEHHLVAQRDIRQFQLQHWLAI
The target in data set [3] is Muscarinic acetylcholine receptor M3 (Homo sapiens) (UniProt P20309). As to the kind of experiment: Positive allosteric modulation of muscarinic M3 receptor expressed in CHO cells assessed as potentiation of acetylcholine-induced intracellular calcium mobilization at 30 uM after 1 hr by FLIPR assay relative to acetylcholine. In kind it is functional, cell-based.
Sequence of Muscarinic acetylcholine receptor M3 (Homo sapiens) (P20309 whole entry, looked up): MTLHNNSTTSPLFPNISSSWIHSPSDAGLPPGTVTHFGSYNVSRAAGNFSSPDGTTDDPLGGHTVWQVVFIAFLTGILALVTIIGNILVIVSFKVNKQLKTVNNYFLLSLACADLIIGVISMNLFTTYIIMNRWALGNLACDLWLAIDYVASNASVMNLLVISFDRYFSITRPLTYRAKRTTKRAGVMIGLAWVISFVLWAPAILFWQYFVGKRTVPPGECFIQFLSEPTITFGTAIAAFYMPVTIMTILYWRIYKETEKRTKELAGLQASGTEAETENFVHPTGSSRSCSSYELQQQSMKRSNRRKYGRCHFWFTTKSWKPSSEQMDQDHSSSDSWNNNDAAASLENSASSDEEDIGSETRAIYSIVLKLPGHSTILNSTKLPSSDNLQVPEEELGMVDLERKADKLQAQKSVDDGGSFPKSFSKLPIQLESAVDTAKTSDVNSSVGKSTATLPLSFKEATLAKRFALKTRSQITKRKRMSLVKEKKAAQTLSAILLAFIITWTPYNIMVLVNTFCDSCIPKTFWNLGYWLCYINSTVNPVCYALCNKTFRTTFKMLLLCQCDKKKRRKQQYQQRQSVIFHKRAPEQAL
Data set [4] concerns the target T2, Muscarinic acetylcholine receptor M2 (Homo sapiens) (UniProt P08172).
T2 sequence (whole entry): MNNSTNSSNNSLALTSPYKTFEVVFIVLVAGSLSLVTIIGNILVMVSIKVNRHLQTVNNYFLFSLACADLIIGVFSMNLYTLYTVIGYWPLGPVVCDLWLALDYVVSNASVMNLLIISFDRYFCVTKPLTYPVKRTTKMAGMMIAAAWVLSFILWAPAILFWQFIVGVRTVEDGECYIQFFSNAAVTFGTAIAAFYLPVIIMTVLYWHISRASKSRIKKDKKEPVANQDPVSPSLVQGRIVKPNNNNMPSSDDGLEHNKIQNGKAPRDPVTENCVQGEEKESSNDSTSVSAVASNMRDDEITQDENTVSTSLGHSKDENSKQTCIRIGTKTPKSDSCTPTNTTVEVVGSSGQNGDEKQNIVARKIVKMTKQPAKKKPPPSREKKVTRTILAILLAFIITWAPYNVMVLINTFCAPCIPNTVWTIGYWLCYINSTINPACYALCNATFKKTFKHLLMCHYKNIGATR
As to the kind of experiment: Positive allosteric modulation of muscarinic M2 receptor expressed in CHO cells co-expressing Gqi5 assessed as potentiation of acetylcholine-induced intracellular calcium mobilization at 30 uM after 1 hr by FLIPR assay relative to acetylcholine. In kind it is functional, cell-based.

In data set [5] the target is T3, Muscarinic acetylcholine receptor M1 (Homo sapiens) (UniProt P11229).
T3 sequence (whole entry): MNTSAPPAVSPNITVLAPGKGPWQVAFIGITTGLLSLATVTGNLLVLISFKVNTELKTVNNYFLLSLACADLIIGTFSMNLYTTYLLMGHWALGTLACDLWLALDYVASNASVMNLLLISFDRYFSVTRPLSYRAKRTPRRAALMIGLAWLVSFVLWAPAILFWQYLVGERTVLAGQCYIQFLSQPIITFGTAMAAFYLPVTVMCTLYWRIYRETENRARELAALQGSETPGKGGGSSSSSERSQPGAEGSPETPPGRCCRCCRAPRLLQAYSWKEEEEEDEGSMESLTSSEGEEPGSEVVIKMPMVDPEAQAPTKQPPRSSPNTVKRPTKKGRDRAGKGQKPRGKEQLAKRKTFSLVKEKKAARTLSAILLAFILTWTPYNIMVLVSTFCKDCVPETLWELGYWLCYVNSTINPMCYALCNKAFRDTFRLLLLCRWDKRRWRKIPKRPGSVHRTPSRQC
As to the kind of experiment: Positive allosteric modulation of muscarinic M1 receptor expressed in CHO cells assessed as potentiation of acetylcholine-induced intracellular calcium mobilization at 30 uM after 1 hr by FLIPR assay relative to acetylcholine. The format is functional, cell-based.

For data set [6], the target named is T4, Muscarinic acetylcholine receptor M5 (Homo sapiens) (UniProt P08912).
T4 sequence (whole entry): T1 sequence (P08912 whole entry)
The experiment in a line: Positive allosteric modulation of muscarinic M5 receptor expressed in CHO cells assessed as potentiation of acetylcholine-induced intracellular calcium mobilization at 30 uM after 1 hr by FLIPR assay relative to acetylcholine. In kind it is functional, cell-based.

For data set [7], the target named is T4, Muscarinic acetylcholine receptor M5 (Homo sapiens). The experiment in a line: Positive allosteric modulation of muscarinic M5 receptor expressed in CHO cells assessed as effect on acetylcholine-induced intracellular calcium mobilization after 1 hr by FLIPR assay relative to acetylcholine. The format is functional, cell-based.
For data set [8], the target named is T5, Muscarinic acetylcholine receptor M4 (Homo sapiens) (UniProt P08173).
T5 sequence (whole entry): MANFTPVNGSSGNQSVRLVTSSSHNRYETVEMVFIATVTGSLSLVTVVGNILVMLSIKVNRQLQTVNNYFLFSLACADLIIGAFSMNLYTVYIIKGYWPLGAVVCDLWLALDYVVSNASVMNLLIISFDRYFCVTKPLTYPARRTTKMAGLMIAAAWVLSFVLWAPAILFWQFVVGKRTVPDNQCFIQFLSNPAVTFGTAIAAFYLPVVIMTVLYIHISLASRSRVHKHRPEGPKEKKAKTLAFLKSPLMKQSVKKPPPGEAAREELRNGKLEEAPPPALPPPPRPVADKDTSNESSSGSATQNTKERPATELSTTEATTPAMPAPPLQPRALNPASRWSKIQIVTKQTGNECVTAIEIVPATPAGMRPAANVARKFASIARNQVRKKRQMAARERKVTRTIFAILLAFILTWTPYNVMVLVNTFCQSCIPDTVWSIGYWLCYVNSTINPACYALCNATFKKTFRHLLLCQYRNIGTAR
As to the kind of experiment: Positive allosteric modulation of muscarinic M4 receptor expressed in CHO cells co-expressing Gqi5 assessed as potentiation of acetylcholine-induced intracellular calcium mobilization at 30 uM after 1 hr by FLIPR assay relative to acetylcholine. In kind it is functional, cell-based.

In data set [9] the target is Histamine H1 receptor (Homo sapiens) (UniProt P35367). As to the kind of experiment: Inhibition of histamine H1 receptor.
Sequence of Histamine H1 receptor (Homo sapiens) (P35367 whole entry): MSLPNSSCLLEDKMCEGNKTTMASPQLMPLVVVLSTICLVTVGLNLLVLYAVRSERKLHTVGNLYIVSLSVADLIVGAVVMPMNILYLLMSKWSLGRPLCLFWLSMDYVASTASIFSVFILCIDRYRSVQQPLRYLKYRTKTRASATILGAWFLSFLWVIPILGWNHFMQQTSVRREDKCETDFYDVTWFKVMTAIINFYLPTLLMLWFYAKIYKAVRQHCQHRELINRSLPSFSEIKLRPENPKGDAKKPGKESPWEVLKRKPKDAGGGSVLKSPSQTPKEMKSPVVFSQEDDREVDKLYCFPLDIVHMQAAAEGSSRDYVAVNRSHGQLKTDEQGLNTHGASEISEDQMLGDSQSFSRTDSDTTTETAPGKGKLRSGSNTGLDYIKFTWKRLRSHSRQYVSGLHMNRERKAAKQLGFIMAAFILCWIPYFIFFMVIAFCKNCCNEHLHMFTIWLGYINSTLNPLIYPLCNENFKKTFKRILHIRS
A short description of data set [10]: Partition coefficient, log P of the compound. The conditions noted are these: octanol/water. The format is physicochemical.
In data set [11] the target is T6, Muscarinic acetylcholine receptor M2 (Homo sapiens, UniProt P08172).
T6 sequence (P08172 whole entry): T2 sequence (whole entry)
As to the kind of experiment: Positive allosteric modulation of muscarinic M2 receptor expressed in CHO cells co-expressing Gqi5 assessed as effect on acetylcholine-induced intracellular calcium mobilization after 1 hr by FLIPR assay.

Data set [12] deals with T7, Muscarinic acetylcholine receptor M4 (Homo sapiens, UniProt P08173).
T7 sequence (P08173 whole entry): T5 sequence (whole entry)
The experiment in a line: Positive allosteric modulation of muscarinic M4 receptor expressed in CHO cells co-expressing Gqi5 assessed as effect on acetylcholine-induced intracellular calcium mobilization after 1 hr by FLIPR assay. The format is functional, cell-based.

The structures appear in SMILES notation. The source made the active and inactive calls. The rule behind the calls is not given here.

On to `O=C1C(=O)N(Cc2ccc(Oc3cccc(F)n3)cc2)c2ccc(OC(F)(F)F)cc21`, for which the EC50 in [1] came to 1.5 µM. Further, the inhibition entry in [2] and in [9] was “Active” throughout. The outcome in [3], in [4], in [5] and in [8] was inactive. Besides, in [6], the fold change (FC) was determined as 6. Further, the Emax in data set [7] amounted to 62%.
On to `O=C1C(=O)N(Cc2ccc(-c3ccccc3)nc2)c2ccc(OC(F)(F)F)cc21`, for which the EC50 in data set [1] was determined as 3.8 µM. Further, the result in data set [3], in [4], in data set [5] and in data set [8] was inactive. In [10], this molecule yielded a logP of 3.6. In addition, in data set [6], the fold change (FC) was determined as 14. For the same molecule, in data set [7], the Emax came out at 76%.
In the case of `O=C1C(=O)N(Cc2ccc(Br)cc2)c2ccccc21`, the values for the EC50 in data set [1], in data set [11] and in data set [12] were 4.6 µM, greater than 30 µM and greater than 30 µM, respectively.
